According to patent US9145354B2, “Pharmaceutical compounds” (priority 2011, dated 2015):
Like-named read-outs stand apart in the source and are kept apart here.

Biological target: full length NS3/4a (Hepatitis C virus genotype 1b (isolate BK) (HCV), UniProt P26663)
Test: NS3 Protease Assay (Example A), FRET-based
Assay type: biochemical
How it was run: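 Initial rates were taken from fluorescence progress curves over 30 min at room temperature, and IC50 was fitted across replicates. In-house full-length NS3/4a cleaved a FRET peptide (5-FAMsp/QXL520) from the NS4A/B site. Medium: 50 mM Tris pH8, 20 mM DTT, 1% CHAPS, 10% glycerol, 5% DMSO.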

[1] = HCV NS3 protease assay, full length NS3/4a, read-out: Assay A IC50 (μM) average
[2] = read-out: IC50 against the protease activity of the full length NS3/4a
[3] = stated as IC50 less than 30 μM or at least 40% inhibition at a concentration of 100 μM, read-out: IC50 against the protease activity of the full length NS3/4a

Chain of full length NS3/4a (P26663 1027-1657): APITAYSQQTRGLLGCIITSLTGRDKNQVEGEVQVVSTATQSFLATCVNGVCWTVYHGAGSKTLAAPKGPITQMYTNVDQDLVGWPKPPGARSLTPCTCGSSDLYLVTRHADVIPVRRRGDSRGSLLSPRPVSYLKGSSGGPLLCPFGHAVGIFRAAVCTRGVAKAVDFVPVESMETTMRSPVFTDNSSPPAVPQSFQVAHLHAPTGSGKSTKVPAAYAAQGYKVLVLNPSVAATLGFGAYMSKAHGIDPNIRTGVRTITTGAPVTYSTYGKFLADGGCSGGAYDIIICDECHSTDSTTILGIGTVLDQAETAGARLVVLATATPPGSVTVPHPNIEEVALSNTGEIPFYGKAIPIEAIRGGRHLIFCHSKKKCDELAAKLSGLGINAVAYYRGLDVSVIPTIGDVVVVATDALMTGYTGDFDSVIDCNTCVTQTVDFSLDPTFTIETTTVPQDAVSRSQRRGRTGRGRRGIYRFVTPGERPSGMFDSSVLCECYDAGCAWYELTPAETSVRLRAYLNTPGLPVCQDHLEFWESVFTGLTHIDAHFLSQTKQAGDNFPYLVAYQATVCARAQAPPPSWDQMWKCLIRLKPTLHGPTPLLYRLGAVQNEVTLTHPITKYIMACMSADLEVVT

Structure (SMILES)	IC50 [1] [µM]	IC50 [2] [µM]	further results
CC[C@@H](NCC(C)(C)C(N)=O)c1ccc(Cl)c(C(=O)c2cccnc2)c1F [Example 172, 3-{(R)-1-[4-Chloro-2-fluoro-3-(pyridine-3-carbonyl)-phenyl]-propylamino}-2,2-dimethyl-propionamide]	1.6	1 to 5	
CC[C@H](N)c1ccc(Cl)c(C(=O)c2ccc(Cl)nc2)c1F [Example 30, (1S)-1-{4-chloro-3-[(6-chloropyridin-3-yl)carbonyl]-2-fluorophenyl}propan-1-amine]	0.21	< 1	
CC[C@@H](N[C@H](C)CC(N)=O)c1ccc(Cl)c(C(=O)c2ccc(N)c(Cl)c2)c1F [Example 244, (3R)-3-{[(1R)-1-{3-[(4-amino-3-chlorophenyl)carbonyl]-4-chloro-2-fluorophenyl}propyl]amino} butanamide]	0.38		
[2H]C([2H])([2H])C([2H])([2H])[C@@H](N[C@H](C)CC(N)=O)c1ccc(Cl)c(C(=O)c2ccc(N)c(C)c2)c1F [Example 221, (3R)-3-{[(1R)-1-{3-[(4-amino-3-methylphenyl)carbonyl]-4-chloro-2-fluorophenyl}(2,2,3,3,3-deutero)propyl]amino} butanamide]	0.36		
CC[C@@H](N[C@@H](C)CC(N)=O)c1ccc(Cl)c(C(=O)c2ccc(N)c(C#N)c2)c1F [Example 213, (3S)-3-{[(1R)-1-{3-[(4-amino-3-cyanophenyl)carbonyl]-4-chloro-2-fluorophenyl}propyl]amino} butanamide]	0.35		
CC[C@@H](N[C@H](C)CC(N)=O)c1ccc(C)c(C(=O)c2ccccc2)c1F [Example 151, (3R)-3-{[(1R)-1-(3-benzoyl-2-fluoro-4-methylphenyl)propyl]amino}butanamide]	0.49		
CC[C@@H](N)c1ccc(Cl)c(C(=O)c2ccc(N)nc2)c1F [Example 1, 5-({3-[(1R)-1-aminopropyl]-6-chloro-2-fluorophenyl}carbonyl)-pyridin-2-amine]	0.089	< 1	
CC[C@@H](N[C@H](C)CC(N)=O)c1ccc(Cl)c(C(=O)c2ccc(-n3cc(CO)cn3)nc2)c1F [Example 160, (3R)-3-{[(1R)-1-[4-chloro-2-fluoro-3-({6-[4-(hydroxymethyl)-1H-pyrazol-1-yl]pyridin-3-yl}carbonyl)phenyl]-propyl]amino}-butanamide]	4.2	1 to 5	
CC[C@@H](N[C@H](C)CC(N)=O)c1ccc(Cl)c(C(=O)c2ccc(CO)cc2)c1F [Example 187, (3R)-3-{[(1R)-1-(4-chloro-2-fluoro-3-{[4-(hydroxymethyl)-phenyl]-carbonyl}phenyl)-propyl]amino}butanamide]	0.66		
CC[C@@H](N[C@H](C)CC(N)=O)c1ccc(Cl)c(C(=O)c2ccc(C#N)c(OC)c2)c1F [Example 236, (3R)-3-{[(1R)-1-{4-chloro-3-[(4-cyano-3-methoxyphenyl)carbonyl]-2-fluorophenyl}propyl]amino}butanamide]			inhibition at 1 µM (@ 1 uM): 56%; IC50 [3]: < 30 µM
CC[C@@H](N)c1ccc(O)c(C(=O)c2ccccc2)c1F [Example 44, 4-[(1R)-1-aminopropyl]-2-benzoyl-3-fluorophenol]			inhibition at 100 µM (@ 100 uM): 30%
COc1ccc([C@H](N[C@H](C)CC(N)=O)C2CC2)c(F)c1C(=O)c1cccc(F)c1 [Example 223, (3R)-3-{[(R)-cyclopropyl({2-fluoro-3-[(3-fluorophenyl)carbonyl]-4-methoxyphenyl})methyl]amino}butanamide]	3.1	1 to 5	
CC[C@@H](N)c1ccc(Cl)c(C(=O)c2cccc(F)c2)c1F [Example 7, (1R)-1-{4-chloro-2-fluoro-3-[(3-fluorophenyl)carbonyl]-phenyl}propan-1-amine]	0.38	< 1	
CC[C@@H](N)c1ccc(Cl)c(C(=O)c2cc(C)on2)c1F [Example 21, (1R)-1-{4-chloro-2-fluoro-3-[(5-methyl-1,2-oxazol-3-yl)carbonyl]phenyl}propan-1-amine]	1	1 to 5	
CC[C@@H](N[C@@H](C)CC(N)=O)c1ccc(Cl)c(C(=O)c2ccc(C(N)=O)cc2)c1F [Example 146, 4-({3-[(1R)-1-{[(2S)-1-Carbamoylpropan-2-yl]amino}propyl]-6-chloro-2-fluorophenyl}carbonyl)-benzamide]			inhibition at 0.3 µM (@ 0.3 uM): 56%
CC[C@@H](N[C@@H](C)CC(N)=O)c1ccc(Cl)c(C(=O)c2cccc(C(=O)O)c2)c1F [Example 122, 3-({3-[(1R)-1-{[(2S)-1-carbamoylpropan-2-yl]amino}propyl]-6-chloro-2-fluorophenyl}carbonyl)-benzoic acid]	1.4	1 to 5	
CC[C@@H](N[C@@H](C)c1cnc[nH]1)c1ccc(Cl)c(C(=O)c2cccnc2)c1F [Example 305, [(1R)-1-{4-chloro-2-fluoro-3-[(pyridin-3-yl)carbonyl]phenyl}propyl] [(1S)-1-(1H-imidazol-5-yl)ethyl]amine]	1.1	1 to 5	

Structure (SMILES)	IC50 [1] [µM]	IC50 [2] [µM]	further results
CC[C@@H](N)c1ccc(C)c(C(=O)c2ccccc2)c1F [Example 39, (1R)-1-(3-benzoyl-2-fluoro-4-methylphenyl)propan-1-amine]	0.73	< 1	
CC[C@H](N[C@H](C)CC(N)=O)c1ccc(Cl)c(C(=O)c2ccccc2)c1F [Example 85, (3R)-3-{[(1S)-1-(3-benzoyl-4-chloro-2-fluorophenyl)-propyl]-amino}butanamide]	0.061		
COc1ccc([C@H](N[C@H](C)CC(N)=O)C2CC2)c(F)c1C(=O)c1ccc(F)cc1 [Example 209, (3R)-3-{[(R)-cyclopropyl({2-fluoro-3-[(4-fluorophenyl)carbonyl]-4-methoxyphenyl})methyl]amino}butanamide]	2.7	1 to 5	
CC[C@@H](N)c1ccc(Cl)c(C(=O)c2ccc(CO)cc2)c1F [Example 50, [4-({3-[(1R)-1-aminopropyl]-6-chloro-2-fluorophenyl}carbonyl)phenyl]methanol]	0.21	< 1	
CC[C@@H](N[C@@H](C)CC(N)=O)c1ccc(Cl)c(C(=O)c2ccncn2)c1F [Example 99, (3S)-3-{[(1R)-1-{4-chloro-2-fluoro-3-[(pyrimidin-4-yl)carbonyl]phenyl}propyl]-amino}butanamide]	0.25		
CC[C@@H](N)c1ccc(Cl)c(C(=O)c2cccc(C#N)c2)c1F [Example 18, 3-({3-[(1R)-1-aminopropyl]-6-chloro-2-fluorophenyl}carbonyl)benzonitrile]	0.62	< 1	
CCC(NC1CCCC1C(N)=O)c1ccc(Cl)c(C(=O)c2ccc(N)nc2)c1F (single isomer, unassigned) [Example 161, 2-{[1-{3-[(6-aminopyridin-3-yl)carbonyl]-4-chloro-2-fluorophenyl}propyl]amino} cyclopentane-1-carboxamide]			inhibition at 10 µM: 60%; IC50 [3]: < 30 µM
CC[C@@H](NC)c1ccc(Cl)c(C(=O)c2ccc(N)nc2)c1F [Example 307, 5-({6-chloro-2-fluoro-3-[(1R)-1-(methylamino)propyl]-phenyl}carbonyl)pyridin-2-amine]	0.34	< 1	
CC[C@@H](N[C@H](C)CC(N)=O)c1ccc(Cl)c(C(=O)c2ccc(=O)[nH]c2)c1F [Example 148, (3R)-3-{[(1R)-1-{4-chloro-2-fluoro-3-[(6-oxo-1,6-dihydropyridin-3-yl)carbonyl]-phenyl}propyl]amino}-butanamide]			inhibition at 10 µM: 43%; IC50 [3]: < 30 µM
CC[C@@H](N[C@H](C)CC(N)=O)c1ccc(F)c(C(=O)c2ccccc2)c1F [Example 158, (3R)-3-{[(1R)-1-(3-benzoyl-2,4-difluorophenyl)propyl]-amino}butanamide]	0.35		
CC[C@H](N)c1ccc(Cl)c(C(=O)c2ccc(N)nc2)c1F [Example 31, 5-({3-[(1S)-1-aminopropyl]-6-chloro-2-fluorophenyl}carbonyl)pyridin-2-amine]	0.18	< 1	
CC[C@@H](N)c1ccc(Cl)c(C(=O)c2ccc(COC(C)=O)cc2)c1F [Example 49, [4-({3-[(1R)-1-aminopropyl]-6-chloro-2-fluorophenyl}carbonyl)phenyl]methyl acetate]	0.15	< 1	
CC[C@@H](N)c1ccc(Cl)c(C(=O)c2cncnc2)c1F [Example 12, (1R)-1-{4-chloro-2-fluoro-3-[(pyrimidin-5-yl)carbonyl]phenyl}-propan-1-amine]			inhibition at 30 µM (@ 30 uM): 47%; IC50 [3]: < 30 µM
CCC(NC[C@H](C)C(N)=O)c1ccc(Cl)c(C(=O)c2cccnc2)c1F (stereo in doubt) [Example 175, (2S)-3-{[(1R)-1-{4-chloro-2-fluoro-3-[(pyridin-3-yl)carbonyl]phenyl}-propyl]amino}-2-methylpropanamide]	1.1	1 to 5	
CC[C@@H](N)c1ccc(Cl)c(C(=O)c2ccc3c(c2)OCCN3)c1F [Example 65, (1R)-1-{4-chloro-3-[(3,4-dihydro-2H-1,4-benzoxazin-7-yl)carbonyl]-2-fluorophenyl}propan-1-amine]	0.16		
CC[C@@H](N)c1ccc(Cl)c(C(=O)c2ccc3c(n2)NC(=O)CO3)c1F [Example 58, 6-({3-[(1R)-1-aminopropyl]-6-chloro-2-fluorophenyl}carbonyl)-2H,3H,4H-pyrido[3,2-b][1,4]oxazin-3-one]			inhibition at 10 µM: 31%
CC[C@@H](N)c1ccc(Cl)c(C(=O)c2cnc(N)cn2)c1F [Example 3, 5-({3-[(1R)-1-aminopropyl]-6-chloro-2-fluorophenyl}carbonyl)-pyrazin-2-amine]	1.3	1 to 5	
